Some test systems named below: MDA-MB-231 breast; IGROV1 ovarian; HT29 colon; A549 NSCLC; OVCAR-4 ovarian; SK-MEL-28 melanoma; COLO 205 colon; SR leukemia; ACHN renal; HL-60(TB) leukemia; M14 melanoma.
Assay in all cases: inhibition of tumour cell growth, NCI panel, 48 h

This is an account of results in PubChem BioAssay (NCI).

Where “and” joins values, the source holds several entries; their conditions need not be identical. Equal entries are not always repeated.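 96-well plates; 48 h exposure; 5 concentrations. Endpoints by linear interpolation between flanking doses. Not reached: highest tested concentration assigned. Abbreviation: GI50, concentration required for 50% inhibition of growth. TGI is the concentration that stops growth completely.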 Some results are limits rather than exact numbers.

Take `CC(=O)Oc1cc(S(=O)(=O)Nc2n[nH]c(N)n2)c(S)cc1Cl`: the TGI with MDA-MB-231 breast, in the experiment with IGROV1 ovarian, in the experiment with HT29 colon, in the experiment on A549 NSCLC, in the experiment with OVCAR-4 ovarian and in the experiment with SK-MEL-28 melanoma was above 100000 nM in each case. Moreover, the TGI with COLO 205 colon, with SR leukemia, with ACHN renal, in the experiment with HL-60(TB) leukemia and with M14 melanoma was above 100000 nM each time.
Turning to `C=C(CC)C[C@@H]1C[C@]2(C(=O)OC)c3[nH]c4ccccc4c3CCN2C1=O`, the TGI in the experiment with MDA-MB-231 breast is 54700 nM; in the experiment on IGROV1 ovarian it was 58000 nM; in the experiment on HT29 colon it was 42000 nM; in the experiment on A549 NSCLC it was 32400 nM; in the experiment on OVCAR-4 ovarian, above 100000 nM; with SK-MEL-28 melanoma it was 39900 nM. Also, the TGI is above 100000 nM in the experiment with COLO 205 colon; above 100000 nM in the experiment with SR leukemia; 76000 nM in the experiment with ACHN renal; 82500 nM in the experiment with HL-60(TB) leukemia; 36500 nM in the experiment on M14 melanoma.
As to `C(=N/NC1=NCCN1)/c1c2ccccc2c(/C=N\NC2=NCCN2)c2ccccc12`, the figures for the GI50 in the experiment with MDA-MB-231 breast, in the experiment on SR leukemia and in the experiment with M14 melanoma were 459 nM, 116 nM and 250 nM, respectively. For the same molecule, the TGI with MDA-MB-231 breast was 1660 nM and 12500 nM; in the experiment on IGROV1 ovarian, 661 nM and 3090 nM and 4750 nM; with HT29 colon, 1360 nM and 1410 nM and 2040 nM; in the experiment on A549 NSCLC, 258 nM and 1370 nM and 1120 nM; in the experiment on OVCAR-4 ovarian it was 400 nM and 584 nM and 1100 nM; in the experiment on SK-MEL-28 melanoma it was 1010 nM and 1080 nM and 685 nM. Further, the TGI was 366 nM and 609 nM and 1410 nM with COLO 205 colon; 759 nM and 4290 nM in the experiment with SR leukemia; 1260 nM and 3970 nM with ACHN renal; 1130 nM and 2330 nM and 725 nM with HL-60(TB) leukemia; 568 nM and 697 nM with M14 melanoma.
